Assay results reported in paper PMC12851022, “Targeting the Spliceosomal Protein USP39 Through Allosteric Ligands and PROTAC‐Induced Degradation” (Angewandte Chemie (International Ed. in English), 2025).

Tested on: 5′ splice site usage in exon 1 of ZNF414 and CRK
Test: RT-PCR analysis of alternative splicing in ZNF414 and CRK transcripts
Format: cell-based, human
Conditions: 10 nM, 24 h
Procedure: Figure 4 Effective and selective degradation of USP39 in cells by USP39‐PROTACs. a) Optimization of cellular degradation assay in HeLa cells transiently overexpressing USP39‑OFP (HeLa‐USP39‐OFP). […] GAPDH was used as a loading control. g) Proteasome dependence of USP39 degradation. HeLa‐WT cells were co‐treated with MG132 (0.25 µM) or DMSO control and USP39_PROTAC_V1 for 24 h ST. h) Representative immunofluorescence images of HeLa‐USP39_OFP cells treated with DMSO (NT), USP39_PROTAC_V1 (10 nM, 24 h), or USP39_PROTAC_V1 + MLN4924 (1 µM), stained for USP39 (red) and nuclei (blue). i) Quantification of USP39 degradation by fluorescence microscopy, showing DC50 values of 13 nM without MLN4924 (orange) and 204 nM with MLN4924 (blue) (MLN4924 = 5 uM). j) VHL‐dependence of PROTAC‐induced degradation. Schematic of PROTAC recruitment to VHL via hydroxyl‐proline interactions (His115, Ser111). Western blot comparing USP39 levels in VHL WT and VHL KO HeLa cells treated with USP39_PROTAC_V1. k) Fluorescence assay in HEK293T cells co‐expressing USP39‑OFP and either VHL_WT‑EGFP or VHL_m (Δ91–121). […] Comparison of untreated (NT) and USP39_PROTAC_V1–treated (10 nM, 24 h) samples. Percent spliced/unspliced (S/U) ratios are shown, reflecting USP39‐deficiency–associated splicing defects. Data represent at least four independent biological replicates. […]

Cc1ncsc1-c1ccc(CNC(=O)C2CC(O)CN2C(=O)C(NC(=O)CCOCCOCCOCCNC(=O)c2csc(Nc3ccc(Cl)cc3)n2)C(C)(C)C)cc1 (stereo not shown) [USP39_PROTAC_V1]
Cryptic 5′ splice site usage in ZNF414 and CRK: reproduced these cryptic splicing events
